The results in this text go back to patent US9498438B2 (The University of Liverpool, priority 2011, dated 2016).

Holding throughout (assay type): cell-based
For one series, the system named is HIVIIIB in MT4 cells. In words: Inhibition of cultured HIV-IIIB in MT4 cells (MTT assay). As to conditions: Human immunodeficiency virus 1, 120 h, 70% loaded, 5 days, read-out: IC50 (nM), Table 11. As for the experimental part: HIVIIIB and the human T-cell line, MT4, were supplied by the National Institute for Biological Standards and Control (NIBSC), the Centre for AIDS Reagents (CFAR: Hertfordshire, Uk). MT4 cells were grown and routinely maintained in RPMI-1640 (Sigma; Dorest, Uk) supplemented with 10% fetal bovine serum (FBS; Bio-Whittaker, Berkshire, Uk) at 37° C. and 5% CO2 and sub-cultured every 3 days. Cell counts and viability was determined by Trypan Blue exclusion using a disposable plastic haemocytometer (Labtech International Ltd, UK). HIVIIIB was propagated by passage through MT4 cells in RPMI-1640 and 10% FBS for 12 days and a subsequent multiplicity of infection (MOI) was determined by MTT assay.
MT4 cells were dispensed into 50 ml falcon tubes and centrifuged at 2000 rpm and 4° C. for 5 minutes. The supernatant was aspirated and the resulting pellet resuspended to a cell density of 1×10^5/ml in RPMI 1640 supplemented with 10% FBS and 1 ml of viral isolate (M.O.I 0.001). After further centrifugation for 5 minutes at 2000 rpm, the MT4/HIVIIIB pellet was incubated at 37° C. and 5% CO2 for 2 hours. […]
Following incubation for 5 days of MT4/HIVIIIB with nano formulated EFV at 37° C. and 5% CO2. […] Absorbance was read at 570 nm on a plate reader (Tecan Magellan, Austria).

A short description of series [1]: ATP cell viability assay (CellTiter-Glo) cytotoxicity. As to conditions: human. An excerpt: HepG2 (hepatic) and Caco-2 (intestinal) cells were purchased from American Type Tissue Culture (ATCC; USA) and maintained in Dulbecco's modified eagle's medium (DMEM; Sigma; Dorest, Uk) supplemented with 10% fetal bovine serum (FBS; Bio-Whittaker, Berkshire, Uk) for HepG2 and 15% FBS for Caco-2. CEM (lymphocyte) and THP-1 (monocyte) cells were purchased from European Collection of Cell Culture (ECACC; Porton Down, Uk) and grown in RPMI-1640 (Sigma; Dorest, Uk) supplemented with 10% FBS. All cell lines were incubated at 37° C. and 5% CO2 and for adherent cells (HepG2 and Caco-2) were routinely sub-cultured every 4 days when 95% confluent. Suspension cells (CEM and THP-1) were routinely sub-cultured when a density of 1×10^6 cells/ml was achieved. Cell count and viability was determined by Trypan Blue exclusion assay.
HepG2, Caco-2, THP-1, CEM and A-THP-1 cells were separately seeded at a density of 2.5×10^4/100 μl in their appropriate media into each well of a 96 well plate (Nunclon™, Denmark) and incubated for 24 hours at 37° C. and 5% CO2. […]
Prior to starting viability assays, all reagents were made fresh and in accordance to manufacturer's instructions and allowed to equilibrate to room temperature immediately before use. […] Luminescence was then measured using a Tecan Genios plate reader (Tecan; Austria).
In general terms: ATP-based viability assays read luminescence as a measure of living cells.

Assay in series [2]: as above
Experimental: Cells were then incubated at 37° C. and 5% CO2 for 7 days prior to use to allow differentiation from monocyte to macrophage like cells.
(§1) The same procedure was followed for each individual excipient (23 samples) with concentrations range of 1 μM to 1 M.
(§2) Prior to starting viability assays, all reagents were made fresh and in accordance to manufacturer's instructions and allowed to equilibrate to room temperature immediately before use. After 24 hours incubation, 96 well plates were removed from the incubator and the plate and its contents allowed too equilibrate to room temperature for approximately 30 minutes. After 30 minutes, 80 μl of media was aspirated from each individual well and 20 μl CellTiter-Glo® Reagent (Promega, UK) was added to the remaining media and cells. The contents were then mixed for 2 minutes on an orbital shaker to induce cell lysis. The plate was then further incubated at room temperature for 10 minutes to stabilise luminescent signal. Luminescence was then measured using a Tecan Genios plate reader (Tecan; Austria).
As to conditions: human, A-THP-1 (PMA-activated THP-1, macrophage like) cells.

Assay in series [3]: as above
Experimental: as §1, §2
As to conditions: human, THP-1 (monocyte) cells.

As usually defined, the IC50 is the point on the concentration scale where inhibition reaches its midpoint.

For `O=C1Nc2ccc(Cl)cc2[C@@](C#CC2CC2)(C(F)(F)F)O1` [Aqueous solution, efavirenz], the IC50 in the series with HIVIIIB in MT4 cells is 71 nM. The IC50 at 24 h in series [1] (CEM (lymphocyte) cells) was 40 µM; in series [1] (HepG2 (hepatic) cells), 33 µM; in series [2], 29 µM; in series [3], 29 µM.
